We go through three molecules from BindingDB's records for doi:10.1016/j.bmcl.2008.01.024 (Schering-Plough Research Institute, 2008).

Usually IC50 stands for the point on the concentration scale where inhibition reaches its midpoint. A high value points to weaker potency.

Test [1] can be described thus: Inhibition of CXCR2-mediated chemotaxis in Ba/F3 cells expressing human CXCR2.
Test [2] in a line: Inhibition of CXCR1-mediated chemotaxis in Ba/F3 cells expressing human CXCR1.

Take `CC[C@@H](Nc1c(Nc2cccc(C(=O)N(C)C)c2O)c(=O)c1=O)c1ccccn1` [(R)-3-(3,4-dioxo-2-(1-(pyridin-2-yl)propylamino)cyclobut-1-enylamino)-2-hydroxy-N,N-dimethylbenzamide]: in test [1], the IC50 came to 4.5 nM.
In turn, `CC[C@@H](Nc1c(Nc2cccc(C(=O)N(C)C)c2O)c(=O)c1=O)c1cc(C)on1` [(R)-2-hydroxy-N,N-dimethyl-3-(2-(1-(5-methylisoxazol-3-yl)propylamino)-3,4-dioxocyclobut-1-enylamino)benzamide] returned a 50% inhibitory concentration (IC50) in test [1] of 12.2 nM.
As to `CC[C@@H](Nc1c(Nc2cccc(C(=O)N(C)C)c2O)c(=O)c1=O)c1cc(Br)co1` [(R)-3-(2-(1-(4-bromofuran-2-yl)propylamino)-3,4-dioxocyclobut-1-enylamino)-2-hydroxy-N,N-dimethylbenzamide], the IC50 was determined as 917 nM in test [2] and 2 nM in test [1].
